This note sets out measurements from patent US12662491B2 (Redona Therapeutics, Inc., priority 2020, dated 2026).

Molecules are shown by their SMILES. Bounds are passed on as bounds.

The assay addresses T1, Zcchc11 enzyme (Homo sapiens, UniProt Q5TAX3).
T1 construct: made in house; host or cells: HEK293 cells (Zcchc11); E. coli Rosetta II (LIN28A)
T1 sequence (Q5TAX3 212-1420): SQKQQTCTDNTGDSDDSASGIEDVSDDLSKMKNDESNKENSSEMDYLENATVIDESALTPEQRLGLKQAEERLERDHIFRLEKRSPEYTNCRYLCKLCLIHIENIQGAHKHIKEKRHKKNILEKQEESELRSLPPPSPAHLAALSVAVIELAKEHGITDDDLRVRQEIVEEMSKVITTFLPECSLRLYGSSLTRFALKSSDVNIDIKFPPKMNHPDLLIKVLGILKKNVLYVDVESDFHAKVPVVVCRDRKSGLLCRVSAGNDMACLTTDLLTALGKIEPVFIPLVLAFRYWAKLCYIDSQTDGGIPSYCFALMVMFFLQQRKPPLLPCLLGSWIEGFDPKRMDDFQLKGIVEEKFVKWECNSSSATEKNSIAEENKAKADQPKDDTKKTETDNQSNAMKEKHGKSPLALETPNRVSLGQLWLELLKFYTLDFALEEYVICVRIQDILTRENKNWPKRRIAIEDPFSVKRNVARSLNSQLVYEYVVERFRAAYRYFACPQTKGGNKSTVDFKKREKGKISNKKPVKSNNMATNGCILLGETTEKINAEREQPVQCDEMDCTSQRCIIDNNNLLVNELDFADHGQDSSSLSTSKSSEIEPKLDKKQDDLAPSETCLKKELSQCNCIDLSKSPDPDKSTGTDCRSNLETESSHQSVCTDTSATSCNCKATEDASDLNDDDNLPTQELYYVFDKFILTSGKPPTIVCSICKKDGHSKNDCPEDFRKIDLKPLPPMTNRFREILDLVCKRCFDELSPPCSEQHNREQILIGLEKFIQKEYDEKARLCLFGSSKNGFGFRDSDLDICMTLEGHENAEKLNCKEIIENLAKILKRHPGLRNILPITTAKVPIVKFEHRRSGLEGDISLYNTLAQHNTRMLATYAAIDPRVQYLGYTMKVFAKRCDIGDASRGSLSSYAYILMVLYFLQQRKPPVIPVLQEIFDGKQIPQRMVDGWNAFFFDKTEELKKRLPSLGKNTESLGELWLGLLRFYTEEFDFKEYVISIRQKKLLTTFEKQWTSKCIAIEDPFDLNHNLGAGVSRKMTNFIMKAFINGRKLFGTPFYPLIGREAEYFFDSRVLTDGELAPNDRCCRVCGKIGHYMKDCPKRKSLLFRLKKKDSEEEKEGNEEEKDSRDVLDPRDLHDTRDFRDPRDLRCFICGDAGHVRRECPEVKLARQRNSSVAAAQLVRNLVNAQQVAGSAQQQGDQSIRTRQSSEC
Put plainly: TUTase assay (Zcchc11 assay, Lin28a-dependent polyuridylation of pre-let-7). Type of assay: biochemical. Conditions: LIN28A 10 nM, Zcchc11 0.2 nM, 5′-fluorescein pre-let-7 miRNA 2 nM, UTP 5 uM, room temperature, 30 minutes pre-incubation; read-out: Potency Lin28a-dep Z11 IC50. The procedure, abridged: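 Potency is measured as inhibition of LIN28A-driven U-tail addition to 2 nM pre-let-7 by 0.2 nM HEK293-derived Zcchc11 fragment with 5 uM UTP at room temperature. Tail growth appears as fluorescein quenching by an annealing rhodamine-A20 probe.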

With `CN(C)C1CN(c2ccc(-n3cc(C(=O)O)c(=O)c4cc(Cl)c(N5CC(F)(F)C[C@@H]5COc5ncccc5Cl)nc43)cn2)C1` [Example 60, 6-chloro-7-[(2R)-2-[[(3-chloropyridin-2-yl)oxy]methyl]-4,4-difluoropyrrolidin-1-yl]-1-[6-[3-(dimethylamino)azetidin-1-yl]pyridin-3-yl]-4-oxo-1,8-naphthyridine-3-carboxylic acid], the IC50 was not above 1000 nM.

With `CN(C)C1CN(c2ccc(-n3cc(C(=O)O)c(=O)c4cc(F)c(N5C[C@H](c6cccnc6)C[C@@H]5COc5ncccc5Cl)cc43)cn2)C1` [Example 61, 7-[(2R)-2-[[(3-Chloropyridin-2-yl)oxy]methyl]-4-(pyridin-3-yl)pyrrolidin-1-yl]-1-[6-[3-(dimethylamino)azetidin-1-yl]pyridin-3-yl]-6-fluoro-4-oxoquinoline-3-carboxylic acid], the IC50 was not above 1000 nM.

On to `CN(C)C1CN(c2ccc(-n3cc(C(=O)O)c(=O)c4cc(F)c(N5C[C@@H](c6cccnc6)C[C@@H]5COc5ncccc5Cl)cc43)cn2)C1` [Example 62, 7-[(2R,4R)-2-[[(3-chloropyridin-2-yl)oxy]methyl]-4-(pyridin-3-yl)pyrrolidin-1-yl]-1-[6-[3-(dimethylamino)azetidin-1-yl]pyridin-3-yl]-6-fluoro-4-oxoquinoline-3-carboxylic acid], for which the IC50 is not above 1000 nM.

With `CN(C)C1CN(c2ccc(-n3cc(C(=O)O)c(=O)c4cc(Cl)c(N5CC(C6CCC6)C[C@@H]5COc5ncccc5Cl)cc43)cn2)C1` (stereo partly drawn) [Example 63, 6-chloro-7-((2R)-2-(((3-chloropyridin-2-yl)oxy)methyl)-4-cyclobutylpyrrolidin-1-yl)-1-(6-(3-(dimethylamino)azetidin-1-yl)pyridin-3-yl)-4-oxo-1,4-dihydroquinoline-3-carboxylic acid], the IC50 was not above 1000 nM.

In the case of `COc1ccc(Cl)c(OCC2C3CC(C3)N2c2cc3c(cc2Cl)c(=O)c(C(=O)O)cn3-c2ccc(N3CC(N(C)C)C3)nc2)n1` (centres unmarked) [Example 64, 6-chloro-7-(3-(((3-chloro-6-methoxypyridin-2-yl)oxy)methyl)-2-azabicyclo[2.1.1]hexan-2-yl)-1-(6-(3-(dimethylamino)azetidin-1-yl)pyridin-3-yl)-4-oxo-1,4-dihydroquinoline-3-carboxylic acid], the IC50 was not above 1000 nM.

As for `CC1CCN(c2cc3c(cc2Cl)c(=O)c(C(=O)O)cn3-c2ccnc(N)c2)[C@H]1COc1nc(N(C)C)ccc1Cl` (stereo partly drawn) [Example 65, 1-(2-aminopyridin-4-yl)-6-chloro-7-[(2R)-2-({[3-chloro-6-(dimethylamino)pyridin-2-yl]oxy}methyl)-3-methylpyrrolidin-1-yl]-4-oxoquinoline-3-carboxylic acid], the IC50 is not above 1000 nM.

Turning to `COc1ccc(Cl)c(OC[C@H]2CC3CC3N2c2cc3c(cc2F)c(=O)c(C(=O)O)cn3-c2ccnc(N)c2)n1` (stereo partly drawn) [Example 66, 1-(2-Aminopyridin-4-yl)-7-((3R)-3-(((3-chloro-6-methoxypyridin-2-yl)oxy)methyl)-2-azabicyclo[3.1.0]hexan-2-yl)-6-fluoro-4-oxo-1,4-dihydroquinoline-3-carboxylic acid], the IC50 is not above 1000 nM.

Regarding `COc1ccc(Cl)c(OCC2N(c3cc4c(cc3Cl)c(=O)c(C(=O)O)cn4-c3cc(N)cnn3)CCC2(C)C)n1` (centres unmarked) [Example 67, 1-(5-Aminopyridazin-3-yl)-6-chloro-7-(2-(((3-chloro-6-methoxypyridin-2-yl)oxy)methyl)-3,3-dimethylpyrrolidin-1-yl)-4-oxo-1,4-dihydroquinoline-3-carboxylic acid], the IC50 was not above 1000 nM.

With `COc1ccc(Cl)c(OC[C@H]2C[C@H]3C[C@H]3N2c2cc3c(cc2F)c(=O)c(C(=O)O)cn3-c2ccc(N3CC(N(C)C)C3)nc2)n1` [Example 68, 7-((1R,3R,5R)-3-(((3-chloro-6-methoxypyridin-2-yl)oxy)methyl)-2-azabicyclo[3.1.0]hexan-2-yl)-1-(6-(3-(dimethylamino)azetidin-1-yl)pyridin-3-yl)-6-fluoro-4-oxo-1,4-dihydroquinoline-3-carboxylic acid], the IC50 is not above 1000 nM.

As for `CO/N=C1/C[C@H](COc2nc(OC)ccc2Cl)N(c2cc3c(cc2Cl)c(=O)c(C(=O)O)cn3-c2ccc(N3CC(N(C)C)C3)nc2)C1` [Example 69, 6-chloro-7-[(2R,4Z)-2-[[(3-chloro-6-methoxypyridin-2-yl)oxy]methyl]-4-(methoxyimino)pyrrolidin-1-yl]-1-[6-[3-(dimethylamino)azetidin-1-yl]pyridin-3-yl]-4-oxoquinoline-3-carboxylic acid], the IC50 was not above 1000 nM.

Regarding `COc1ccc(Cl)c(OC[C@H]2C[C@@H]3C[C@@H]3N2c2cc3c(cc2F)c(=O)c(C(=O)O)cn3-c2ccc(N3CC(N(C)C)C3)nc2)n1` [Example 70, 7-[(3R)-3-{[(3-chloro-6-methoxypyridin-2-yl)oxy]methyl}-2-azabicyclo[3.1.0]hexan-2-yl]-1-{6-[3-(dimethylamino)azetidin-1-yl]pyridin-3-yl}-6-fluoro-4-oxo-1,4-dihydroquinoline-3-carboxylic acid], the IC50 was not above 1000 nM.

`COc1ccc(Cl)c(OC[C@H]2CC(c3cn[nH]c3)CN2c2cc3c(cc2F)c(=O)c(C(=O)O)cn3-c2ccc(N3CC(N(C)C)C3)nc2)n1` (stereo partly drawn) [Example 71, 7-[(2R)-2-[[(3-chloro-6-methoxypyridin-2-yl)oxy]methyl]-4-(1H-pyrazol-4-yl)pyrrolidin-1-yl]-1-[6-[3-(dimethylamino)azetidin-1-yl]pyridin-3-yl]-6-fluoro-4-oxoquinoline-3-carboxylic acid]: the IC50 is not above 1000 nM.

For `COc1ccc(Cl)c(OC[C@H]2CC3CC3N2c2cc3c(cc2F)c(=O)c(C(=O)O)cn3-c2ccc(N3CC(N(C)C)C3)nc2)n1` (stereo partly drawn) [Example 72, 7-[(3R)-3-{[(3-chloro-6-methoxypyridin-2-yl)oxy]methyl}-2-azabicyclo[3.1.0]hexan-2-yl]-1-{6-[3-(dimethylamino)azetidin-1-yl]pyridin-3-yl}-6-fluoro-4-oxo-1,4-dihydroquinoline-3-carboxylic acid], the IC50 was not above 1000 nM.

On to `COc1ccc(Cl)c(OC[C@H]2C[C@@H]3C[C@@H]3N2c2cc3c(cc2F)c(=O)c(C(=O)O)cn3-c2ccc(N3CC(N(C)C)C3)nc2)n1` [Example 74, 7-[(1S,3R,5S)-3-{[(3-chloro-6-methoxypyridin-2-yl)oxy]methyl}-2-azabicyclo[3.1.0]hexan-2-yl]-1-{6-[3-(dimethylamino)azetidin-1-yl]pyridin-3-yl}-6-fluoro-4-oxo-1,4-dihydroquinoline-3-carboxylic acid], for which the IC50 is not above 1000 nM.

With `COc1ccnc(OC[C@H]2CCCN2c2cc3c(cc2Cl)c(=O)c(C(=O)O)cn3-c2ccc(N3CC(N(C)C)C3)nc2)c1Cl` [Example 75, 6-chloro-7-[(2R)-2-{[(3-chloro-4-methoxypyridin-2-yl)oxy]methyl}pyrrolidin-1-yl]-1-{6-[3-(dimethylamino)azetidin-1-yl]pyridin-3-yl}-4-oxo-1,4-dihydroquinoline-3-carboxylic acid], the IC50 was not above 1000 nM.

Consider `O=C(O)c1cn(-c2cc3n(n2)CCOC3)c2cc(N3CCC[C@@H]3COc3ncccc3Cl)c(Cl)cc2c1=O` [Example 76, (R)-6-chloro-7-(2-(((3-chloropyridin-2-yl)oxy)methyl)pyrrolidin-1-yl)-1-(6,7-dihydro-4H-pyrazolo[5,1-c][1,4]oxazin-2-yl)-4-oxo-1,4-dihydroquinoline-3-carboxylic acid], for which the IC50 was not above 1000 nM.

For the molecule `O=C(O)c1cn(-c2cnccn2)c2cc(N3C[C@@H](F)C[C@H]3COc3ncccc3Cl)c(Cl)cc2c1=O` [Example 77, 6-chloro-7-[(2S,4S)-2-{[(3-chloropyridin-2-yl)oxy]methyl}-4-fluoropyrrolidin-1-yl]-4-oxo-1-(pyrazin-2-yl)-1,4-dihydroquinoline-3-carboxylic acid], the IC50 is not above 1000 nM.

As usually defined, the IC50 is the concentration that gives 50% inhibition.
